# Reference: patent US20090028795A1, “NOD1 as an Anti-Tumor Agent” (priority 2005, published 2009)
# Non-standard residues stand in square brackets, D forms with d. No end group written: not given here. DAP = diaminopimelic acid
# Key:
# Assay type in all cases: cell-based, human
# SK-BR3 = assay: Apoptosis (PI staining), SK-BR3 cells
# Procedure: (§1) Cell viability assays. Propidium iodide exclusion assay: Cells were stimulated as indicated for 2 days. Subsequently, cells were harvested, washed twice in FACS buffer (PBS containing 1% FCS and 0.1% NaN3) and resuspended in propidium iodide (PI)-containing FACS buffer (4 ug/ml). The extent of cell death was analyzed with a FACSCalibur flow cytometer (Becton Dickinson, Mountain View, Calif.). DAPI staining: MCF-7 cells were plated in chamber slides, and stimulated for 2 days. Cells were washed with PBS and apoptotic nuclei were stained with 1 μg/ml DAPI (Sigma Chemical Co., St. Louis, Mo.). Cells were fixed in 4% paraformaldehyde and examined by fluorescence microscopy.
# (§2) To determine if Nod1-dependent apoptosis occurs in other human cell lines, a series of epithelial cell lines were examined where Nod1 was stably expressed to enhance sensitivity to activation of the Nod1 pathway. Cells were treated with TNFα (T) and γTriDAP (γ) in the presence or absence of CHX (C) and monitored for viability by PI staining as a measure of apoptosis (Table 1).
# HT29 [1] = assay: IL-8 production, HT29 cells stably expressing Nod1; settings: HT29, Nod1 stably expressed; treatment as labelled
# MCF-7 Nod2 cells = assay: Apoptosis (PI, flow cytometry) in MCF-7 cells over-expressing Nod2; settings: 20 ug/ml plus CHX, 48 h
# Procedure: In FIG. 5A, MCF-7 Blasto, MCF-7 Nod1 and MCF-7 Nod2 were treated with the NOD1 ligand γTriDAP or the Nod2 ligand muramyl dipeptide (MDP)(20 ug/ml each) in the presence or absence of CHX for 48 h. Cells were then incubated with PI and apoptotic cell death was measured by flow cytometry. […] In FIG. 5B, expression of NOD1 and NOD2 was confirmed by Western blot analysis using anti-Myc antibodies for detection of the recombinant proteins. […] MCF-7 Blasto, MCF-7 Nod1 and MCF-7 Nod2 cells were stimulated with γTriDAP or MDP in the presence or absence of CHX (0.5 ug/ml) for 24 h. Cell supernatants were then harvested and assayed for IL-8 secretion.
# Cell viability assays. Propidium iodide exclusion assay: Cells were stimulated as indicated for 2 days. […] The extent of cell death was analyzed with a FACSCalibur flow cytometer (Becton Dickinson, Mountain View, Calif.). […] Cells were fixed in 4% paraformaldehyde and examined by fluorescence microscopy.
# Experiments were also performed to ascertain whether activation of Nod2 by its specific activator, muramyl dipeptide (MDP), would initiate apoptosis in parental MCF-7 cells or in MCF-7 cells over-expressing Nod2 (MCF-7 Nod2). Thus, γTriDAP or MDP were added to each of these lines and apoptosis (FIG. 5A) and IL-8 production (FIG. 5C) were measured. […]
# JNK = JNK phosphorylation in MCF-7 RIP2 transfectants
# From the text: FIG. 7A-C illustrate that both wild-type RIP2 and a kinase-deficient (KD) mutant of RIP2 are functional in the NOD1 apoptosis pathway. However, RIP2 lacking the CARD domain acts as a dominant negative inhibitor of NOD1 signaling. FIG. 7A graphically illustrates the percentage of cells that were apoptotic in populations of wild type RIP2, RIP2 KD and RIP2 ΔCARD cells. MCF-7 cells were stably transfected with wild type Myc-RIP2, Myc-RIP2 KD, and Myc-RIP2 ΔCARD and were left untreated or were treated with γTriDAP in the presence or absence of CHX (3 ug/ml) for 48 h. Cells were incubated with PI and apoptotic cell death was measured by flow cytometry. […] FIG. 7C illustrates γTriDAP-induction of phosphorylation of JNK in RIP2 wild types, MCF-7 RIP2 KD, and RIP2 ΔCARD cells.
# The effect of RIP2 expression on γTriDAP-induced JNK phosphorylation was also examined (FIG. 7C).
# MCF-7 Nod1 cells = assay: Propidium iodide exclusion cell death assay, MCF-7 cells over-expressing Nod1; settings: MCF-7Nod1 cells, cycloheximide and γTriDAP, 48 h treatment
# Procedure: as §1
# To further investigate the role of Nod1 in apoptosis, a variety of cell types were incubated with the Nod1 ligand, […] (γTriDAP), which specifically activates Nod1. The cell types tested included the parental MCF-7 cell line, the Nod1-deficient MCF-7C20 clone, and a cell line engineered to contain an additional human Nod1 allele (MCF-7Nod1) so that Nod1 was over-expressed. To determine whether the resistance of C20 cells to γTriDAP-induced apoptosis resulted from the absence of Nod1, human Nod1 was stably expressed in MCF-7 C20 cells to produce Nod1-sufficient C20 cells (C20/Nod1). As another control, the parental MCF-7 cell line was transfected with an empty retroviral vector to generate MCF-7 Blasto cells. Cells were treated with γTriDAP in the presence or absence of cycloheximide (CHX) and cell death was then determined by propidium iodide staining and flow cytometry.
# A431 = assay: Apoptosis (PI staining), A431 cells stably expressing Nod1; settings: A431, Nod1 stably expressed; treatment as labelled
# Procedure: as §1, §2
# CaCo2 [2] = assay: IL-8 production, CaCo2 cells stably expressing Nod1; settings: CaCo2, Nod1 stably expressed; treatment as labelled
# HT29 [3] = assay: Apoptosis (PI staining), HT29 cells stably expressing Nod1; settings: HT29, Nod1 stably expressed; treatment as labelled
# Procedure: as §1, §2
# [4] = system: MCF-7 C20 cells with Nod2; assay: Apoptosis in MCF-7 C20 cells complemented with Nod2; settings: MCF-7 C20 complemented with Nod2 (data not shown)
# CaCo2 [5] = assay: Apoptosis (PI staining), CaCo2 cells stably expressing Nod1; settings: CaCo2, Nod1 stably expressed; treatment as labelled
# Procedure: as §1, §2
# MCF-7 cells = assay: Apoptosis in the presence of TNFα (FIG. 8C); settings: with TNFα
# Procedure: FIG. 8A-D illustrate that a synergistic relationship exists between NOD1 and TNFα. FIG. 8A graphically illustrates that the percentage of apoptotic cells increases in dose-specific manner as the concentration of NOD1 increases from 0.0 to 100 μg/ml and the concentration of TNFα increases from 0.5 ng/ml to 1 ng/ml. FIG. 8B graphically illustrates that the percentage of apoptotic cells increases in dose-specific manner as the concentration of cycloheximide increases from 0.0 to 3 μg/ml and the concentration of TNFα increases from 0.5 ng/ml to 1 ng/ml. […] FIG. 8D illustrates NOD1 expression at various time points after exposure of MCF-7 cells to TNFα.
# 293 = assay: Apoptosis (PI staining), 293 cells stably expressing Nod1; settings: 293, Nod1 stably expressed; treatment as labelled
# Procedure: as §1, §2
# MCF-7 C20 cells = assay: Propidium iodide exclusion cell death assay, Nod1-deficient MCF-7 C20 cells; settings: MCF-7C20 (without Nod1 expression), γTriDAP plus cycloheximide
# Procedure: as §1
# To further investigate the role of Nod1 in apoptosis, a variety of cell types were incubated with the Nod1 ligand, […] (γTriDAP), which specifically activates Nod1. The cell types tested included the parental MCF-7 cell line, the Nod1-deficient MCF-7C20 clone, and a cell line engineered to contain an additional human Nod1 allele (MCF-7Nod1) so that Nod1 was over-expressed. […] Cells were treated with γTriDAP in the presence or absence of cycloheximide (CHX) and cell death was then determined by propidium iodide staining and flow cytometry.
substance,measurement,setting,value
D-Ala-L-Glu-Diaminopimelic acid ([dA]-Glu-[DAP]; also: Glu joined to DAP through its gamma carboxyl (γTriDAP)),apoptosis,"SK-BR3; SK-BR3, Nod1 stably expressed, treatment as labelled",only undergo apoptosis when γTriDAP was added together with TNFα and CHX
same,apoptosis of SKBR3 cells,SK-BR3; plus TNFα and cycloheximide (FIG. 9B),highest
same,IL−8 Production,HT29 [1],poorly responsive
same,apoptosis,MCF-7 Nod2 cells,produced cell death
same,phosphorylation of JNK,"JNK; MCF-7 expressing wild type RIP2 or RIP2 KD, in the presence of cycloheximide, 2 h",induced phosphorylation of JNK
same,phosphorylation of JNK,"JNK; RIP2ΔCARD cells, with cycloheximide",no such effect
same,cell death,MCF-7 Nod1 cells,~60%
same,apoptosis,A431,only undergo apoptosis when γTriDAP was added together with TNFα and CHX
same,IL−8 Production,CaCo2 [2],poorly responsive
same,apoptosis,HT29 [3],poorly responsive
same,apoptosis,[4],did not result in apoptosis
same,apoptosis,CaCo2 [5],poorly responsive
same,apoptosis in the presence of TNFα,MCF-7 cells,increases apoptosis
same,apoptosis,293,resistant
same,apoptosis,MCF-7 C20 cells,totally resistant
